Results as given in US20100015141A1, “4-PHENOXY-6-ARYL-1H-PYRAZOLO[3,4-D]PYRIMIDINE AND N-ARYL-6-ARYL-1H-PYRAZOLO[3,4-D]PYRIMIDIN-4-AMINE COMPOUNDS, THEIR USE AS MTOR KINASE AND PI3 KINASE INHIBITORS, AND THEIR SYNTHESES” (Wyeth, priority 2008, published 2010).
Values belong to the molecule of their own block, whether it stands above or below them.

Legend:
Assay type in all cases: biochemical
PI3K-α = PI3K-α (Homo sapiens, UniProt P42336); assay: PI3K-alpha fluorescence polarization assay; conditions: 20 μM PIP2, 25 μM ATP
Method: (§1) The reaction buffer was 20 mM HEPES pH7.5, 2 mM MgCl2, 0.05% CHAPS, and 0.01% βME (added fresh). The substrate solution was 40 μM PIP2 (diC8, Echelon, Salt Lake City Utah cat #P-4508, 1 mM in water) and 50 μM ATP in the reaction buffer. Nunc 384-well black polypropylene fluorescent plates were used for PI3K assays. The assay is run by putting 9.5 μl of freshly diluted enzyme in the reaction buffer per well, adding 0.5 μl of diluted drug or DMSO, and mixing. Then 10 μl of the substrate solution is added to each well to start the reaction. A final concentration of 20 μM PIP2 and 25 μM ATP in the reaction was used. Reactions were allowed to proceed for 30-60 minutes at room temperature. After 30-60 minutes, 20 μl of a solution of 10 nM TAMRA detector (Red detector probe-Echelon) and 2.5 uM of GST-murineGRP (1.5 mg/ml in 17% glycerol) was added per well to stop the reaction. The resulting solution was mixed well and allowed to stand for 90-110 minutes before reading plate. Assay Plates were read on Perkin-Elmer Envision plate readers with appropriate filters for Tamra [BODIPY-TMRI(1,3,4,5)P4]. Data obtained were used to calculate enzymatic activity and enzyme inhibition by inhibitor compounds. It is important to keep Red probe solutions dark. This procedure is adapted from Echelon Biosciences Inc procedure for their PI3-Kinase fluorescence polarization activity Assay kit Product number K-1100.

PI3K-β = PI3K-β (Homo sapiens, UniProt P42338); assay: PI3K fluorescence polarization assay (PI3K-β)
Method: as §1

PI3K-γ = PI3K-γ (Homo sapiens, UniProt P48736); assay: PI3K-gamma fluorescence polarization assay; conditions: 20 μM PIP2, 25 μM ATP
Method: as §1

PI3K-δ = PI3K-δ (Homo sapiens, UniProt O00329); assay: PI3K fluorescence polarization assay (PI3K-δ)
Method: as §1

mTOR = mTOR (Homo sapiens, UniProt P42345); assay: mTOR enzyme assay (DELFIA, His6-S6K phosphorylation); set-up: FLAG; conditions: 100 μM ATP, 1.25 μM His6-S6K

PI3K-γ, sequence (P48736 whole entry, species assumed): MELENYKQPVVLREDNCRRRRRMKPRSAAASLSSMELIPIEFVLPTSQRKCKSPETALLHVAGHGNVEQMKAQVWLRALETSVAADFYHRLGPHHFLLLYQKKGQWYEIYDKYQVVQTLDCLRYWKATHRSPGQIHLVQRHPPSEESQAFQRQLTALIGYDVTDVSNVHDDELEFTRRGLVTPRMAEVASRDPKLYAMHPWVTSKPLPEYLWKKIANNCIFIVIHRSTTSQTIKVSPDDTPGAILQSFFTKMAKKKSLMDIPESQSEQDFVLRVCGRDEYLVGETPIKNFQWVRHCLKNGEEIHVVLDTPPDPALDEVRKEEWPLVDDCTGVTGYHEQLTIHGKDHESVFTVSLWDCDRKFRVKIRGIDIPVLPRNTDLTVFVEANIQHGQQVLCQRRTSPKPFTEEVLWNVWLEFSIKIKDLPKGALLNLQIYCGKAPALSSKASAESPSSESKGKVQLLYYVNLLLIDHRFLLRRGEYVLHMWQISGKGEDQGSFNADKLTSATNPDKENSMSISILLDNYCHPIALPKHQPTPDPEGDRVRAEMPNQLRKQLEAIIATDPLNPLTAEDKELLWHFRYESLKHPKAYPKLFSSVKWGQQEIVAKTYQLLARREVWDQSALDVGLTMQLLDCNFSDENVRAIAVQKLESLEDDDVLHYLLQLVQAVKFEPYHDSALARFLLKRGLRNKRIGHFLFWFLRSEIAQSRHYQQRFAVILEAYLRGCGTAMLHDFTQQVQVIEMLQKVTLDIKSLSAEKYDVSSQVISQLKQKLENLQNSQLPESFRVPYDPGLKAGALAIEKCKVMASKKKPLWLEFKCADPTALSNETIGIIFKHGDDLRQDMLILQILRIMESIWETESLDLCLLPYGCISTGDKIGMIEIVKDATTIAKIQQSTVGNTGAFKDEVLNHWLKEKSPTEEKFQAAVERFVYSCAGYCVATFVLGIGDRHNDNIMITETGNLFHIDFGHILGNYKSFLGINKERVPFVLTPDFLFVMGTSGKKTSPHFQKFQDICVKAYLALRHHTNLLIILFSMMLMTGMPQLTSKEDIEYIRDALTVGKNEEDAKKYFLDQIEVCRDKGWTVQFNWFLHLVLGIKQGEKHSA
PI3K-δ, sequence (O00329 whole entry, species assumed): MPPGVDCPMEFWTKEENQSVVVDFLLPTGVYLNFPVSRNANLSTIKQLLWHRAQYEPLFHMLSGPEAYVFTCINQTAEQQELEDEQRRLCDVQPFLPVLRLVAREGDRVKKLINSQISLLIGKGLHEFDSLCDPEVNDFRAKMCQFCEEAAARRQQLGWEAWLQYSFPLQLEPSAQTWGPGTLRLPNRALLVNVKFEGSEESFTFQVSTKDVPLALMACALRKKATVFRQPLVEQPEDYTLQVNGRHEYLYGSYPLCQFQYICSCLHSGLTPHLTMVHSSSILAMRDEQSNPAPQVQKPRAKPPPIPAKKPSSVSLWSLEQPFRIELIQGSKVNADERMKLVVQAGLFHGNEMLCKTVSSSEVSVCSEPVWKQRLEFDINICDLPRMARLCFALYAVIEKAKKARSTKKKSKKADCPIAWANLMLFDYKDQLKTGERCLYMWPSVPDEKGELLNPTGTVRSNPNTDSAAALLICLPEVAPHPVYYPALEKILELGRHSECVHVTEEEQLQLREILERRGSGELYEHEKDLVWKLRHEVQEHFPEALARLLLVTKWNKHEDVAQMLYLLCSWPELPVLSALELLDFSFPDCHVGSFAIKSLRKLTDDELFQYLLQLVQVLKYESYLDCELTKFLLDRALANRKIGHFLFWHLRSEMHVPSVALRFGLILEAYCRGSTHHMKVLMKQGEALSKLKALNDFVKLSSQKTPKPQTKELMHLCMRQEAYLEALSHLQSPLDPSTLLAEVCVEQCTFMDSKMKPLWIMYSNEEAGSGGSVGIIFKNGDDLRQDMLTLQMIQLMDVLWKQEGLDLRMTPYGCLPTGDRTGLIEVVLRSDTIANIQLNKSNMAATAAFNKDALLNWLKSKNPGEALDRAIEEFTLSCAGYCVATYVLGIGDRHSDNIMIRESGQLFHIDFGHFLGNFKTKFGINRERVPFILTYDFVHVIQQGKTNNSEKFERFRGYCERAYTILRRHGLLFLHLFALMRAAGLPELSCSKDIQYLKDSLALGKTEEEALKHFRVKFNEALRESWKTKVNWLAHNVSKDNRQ
PI3K-δ, sequence (P27986 whole entry partner, species assumed): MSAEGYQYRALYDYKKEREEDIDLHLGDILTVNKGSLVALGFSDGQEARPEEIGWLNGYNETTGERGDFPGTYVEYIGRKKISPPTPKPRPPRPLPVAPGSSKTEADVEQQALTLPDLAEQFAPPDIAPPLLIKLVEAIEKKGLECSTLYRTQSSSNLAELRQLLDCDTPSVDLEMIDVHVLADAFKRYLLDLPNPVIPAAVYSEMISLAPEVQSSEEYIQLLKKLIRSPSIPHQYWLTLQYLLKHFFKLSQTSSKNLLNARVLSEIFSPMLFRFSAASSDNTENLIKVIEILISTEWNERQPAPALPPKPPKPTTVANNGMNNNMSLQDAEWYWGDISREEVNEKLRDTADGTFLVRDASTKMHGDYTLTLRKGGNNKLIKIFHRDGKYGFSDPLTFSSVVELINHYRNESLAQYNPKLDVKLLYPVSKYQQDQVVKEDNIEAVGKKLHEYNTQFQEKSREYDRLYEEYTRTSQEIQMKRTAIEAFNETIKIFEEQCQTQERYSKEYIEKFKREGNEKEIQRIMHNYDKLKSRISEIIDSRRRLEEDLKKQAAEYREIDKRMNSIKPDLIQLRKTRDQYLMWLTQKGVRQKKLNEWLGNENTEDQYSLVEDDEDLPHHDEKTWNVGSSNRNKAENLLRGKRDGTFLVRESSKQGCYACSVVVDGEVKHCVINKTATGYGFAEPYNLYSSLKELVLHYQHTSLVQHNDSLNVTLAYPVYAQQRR
PI3K-α, sequence (P42336 whole entry, species assumed): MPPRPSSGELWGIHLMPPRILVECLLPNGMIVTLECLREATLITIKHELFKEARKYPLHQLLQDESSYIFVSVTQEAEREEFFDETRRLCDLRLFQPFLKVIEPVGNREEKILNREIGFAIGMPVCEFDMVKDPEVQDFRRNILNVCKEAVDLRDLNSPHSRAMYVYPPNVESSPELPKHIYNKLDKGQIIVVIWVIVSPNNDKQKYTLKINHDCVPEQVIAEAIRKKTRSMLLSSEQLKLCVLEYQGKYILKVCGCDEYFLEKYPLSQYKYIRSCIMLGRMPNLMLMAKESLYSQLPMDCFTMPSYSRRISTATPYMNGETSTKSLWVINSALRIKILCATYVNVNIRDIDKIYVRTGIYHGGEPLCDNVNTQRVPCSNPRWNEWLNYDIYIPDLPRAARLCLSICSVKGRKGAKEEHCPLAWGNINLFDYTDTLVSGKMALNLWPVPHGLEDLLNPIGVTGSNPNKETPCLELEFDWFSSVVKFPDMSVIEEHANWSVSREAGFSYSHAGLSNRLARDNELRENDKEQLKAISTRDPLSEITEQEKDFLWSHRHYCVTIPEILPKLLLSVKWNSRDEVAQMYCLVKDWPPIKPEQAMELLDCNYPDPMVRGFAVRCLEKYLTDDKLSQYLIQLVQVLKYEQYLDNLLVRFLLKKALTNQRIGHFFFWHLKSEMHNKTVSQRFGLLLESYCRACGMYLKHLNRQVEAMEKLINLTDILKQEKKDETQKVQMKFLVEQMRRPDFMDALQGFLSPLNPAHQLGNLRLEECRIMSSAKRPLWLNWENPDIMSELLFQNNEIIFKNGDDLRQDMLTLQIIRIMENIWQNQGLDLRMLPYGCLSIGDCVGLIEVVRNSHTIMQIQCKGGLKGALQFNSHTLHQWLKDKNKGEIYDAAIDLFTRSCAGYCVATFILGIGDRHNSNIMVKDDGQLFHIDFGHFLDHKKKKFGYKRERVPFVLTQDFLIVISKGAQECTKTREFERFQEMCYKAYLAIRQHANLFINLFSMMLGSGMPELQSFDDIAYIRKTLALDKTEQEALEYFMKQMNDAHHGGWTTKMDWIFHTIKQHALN
PI3K-α, sequence (P27986 whole entry partner, species assumed): as the sequence (P27986 whole entry partner, species assumed) above
PI3K-β, sequence (P42338 whole entry, species assumed): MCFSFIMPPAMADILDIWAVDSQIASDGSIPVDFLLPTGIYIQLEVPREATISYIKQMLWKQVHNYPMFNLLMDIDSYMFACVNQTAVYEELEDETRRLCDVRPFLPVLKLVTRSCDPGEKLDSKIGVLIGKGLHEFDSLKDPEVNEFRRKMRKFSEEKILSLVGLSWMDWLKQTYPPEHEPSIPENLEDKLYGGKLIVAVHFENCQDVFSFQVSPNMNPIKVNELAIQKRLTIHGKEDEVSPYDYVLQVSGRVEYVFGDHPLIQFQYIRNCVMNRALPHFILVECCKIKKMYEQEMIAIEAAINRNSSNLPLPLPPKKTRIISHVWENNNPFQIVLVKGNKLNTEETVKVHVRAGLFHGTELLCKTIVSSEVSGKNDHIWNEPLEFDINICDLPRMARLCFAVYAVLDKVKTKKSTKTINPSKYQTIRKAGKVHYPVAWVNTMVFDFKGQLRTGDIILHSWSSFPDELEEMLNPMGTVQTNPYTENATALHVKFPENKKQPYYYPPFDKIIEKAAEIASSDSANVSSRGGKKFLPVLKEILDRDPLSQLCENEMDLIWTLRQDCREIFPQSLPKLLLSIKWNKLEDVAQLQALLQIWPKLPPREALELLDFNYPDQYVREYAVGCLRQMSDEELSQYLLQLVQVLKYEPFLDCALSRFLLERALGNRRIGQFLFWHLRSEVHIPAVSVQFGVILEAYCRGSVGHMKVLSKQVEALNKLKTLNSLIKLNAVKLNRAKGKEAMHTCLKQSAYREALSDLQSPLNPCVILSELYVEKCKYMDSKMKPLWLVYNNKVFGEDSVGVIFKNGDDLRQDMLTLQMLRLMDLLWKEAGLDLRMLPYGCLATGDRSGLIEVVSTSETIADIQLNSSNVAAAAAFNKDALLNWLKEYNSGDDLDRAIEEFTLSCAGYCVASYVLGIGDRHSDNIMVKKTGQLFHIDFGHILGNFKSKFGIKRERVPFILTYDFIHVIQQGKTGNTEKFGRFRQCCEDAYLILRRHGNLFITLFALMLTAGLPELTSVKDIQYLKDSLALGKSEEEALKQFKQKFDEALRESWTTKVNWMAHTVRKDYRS
PI3K-β, sequence (P27986 whole entry partner, species assumed): as the sequence (P27986 whole entry partner, species assumed) above

Compound: Cc1noc(C)c1-c1nc(Nc2ccc(C(N)=O)cc2)c2cnn(C)c2n1 [Example 63, 4-{[6-(3,5-dimethylisoxazol-4-yl)-1-methyl-1H-pyrazolo[3,4-d]pyrimidin-4-yl]amino}benzamide]
IC50 (PI3K-α): 75 nM | IC50 (PI3K-β): 2150 nM | IC50 (PI3K-γ): 416 nM | IC50 (PI3K-δ): 439 nM | IC50 (mTOR): 2800 nM

Compound: Cn1ncc2c(Oc3ccc4[nH]ccc4c3)nc(-c3ccc(-c4ccccc4)cc3)nc21 [Example 56, 6-biphenyl-4-yl-4-(1H-indol-5-yloxy)-1-methyl-1H-pyrazolo[3,4-d]pyrimidine]
IC50 (PI3K-α): 11500 nM | IC50 (PI3K-γ): > 10000 nM | IC50 (mTOR): 16000 nM

Compound: COc1ccc(Oc2nc(-c3ccccc3)nc3c2cnn3C)cc1OC [Example 73, 4-(3,4-dimethoxyphenoxy)-1-methyl-6-phenyl-1H-pyrazolo[3,4-d]pyrimidine]
IC50 (PI3K-α): 1760 nM | IC50 (PI3K-γ): > 9600 nM | IC50 (mTOR): 8200 nM

Compound: Cn1cc(-c2nc(Oc3ccc4[nH]ccc4c3)c3cnn(C)c3n2)cn1 [Example 59, 4-(1H-indol-5-yloxy)-1-methyl-6-(1-methyl-1H-pyrazol-4-yl)-1H-pyrazolo[3,4-d]pyrimidine]
IC50 (PI3K-α): 2870 nM | IC50 (PI3K-γ): 2510 nM | IC50 (mTOR): > 20000 nM

Compound: CC(=O)Nc1ccc(Oc2nc(-c3cccc(O)c3)nc3c2cnn3C)cc1 [Example 50, N-(4-{[6-(3-hydroxyphenyl)-1-methyl-1H-pyrazolo[3,4-d]pyrimidin-4-yl]oxy}phenyl)acetamide]
IC50 (PI3K-α): 113 nM | IC50 (PI3K-β): 213 nM | IC50 (PI3K-γ): 114 nM | IC50 (PI3K-δ): 65 nM | IC50 (mTOR): 2100 nM

Compound: Cn1ncc2c(Oc3ccc4[nH]ccc4c3)nc(-c3cccnc3)nc21 [Example 41, 4-(1H-indol-5-yloxy)-1-methyl-6-pyridin-3-yl-1H-pyrazolo[3,4-d]pyrimidine]
IC50 (PI3K-α): 215 nM | IC50 (PI3K-γ): 428 nM | IC50 (mTOR): 7200 nM

Compound: CC(C)NC(=O)Nc1ccc(Nc2nc(Nc3ccc(C(N)=O)cc3)c3cnn(C)c3n2)cc1 [Example 89, 4-{[1-Methyl-6-({4-[(propan-2-ylcarbamoyl)amino]phenyl}amino)-1H-pyrazolo[3,4-d]pyrimidin-4-yl]amino}benzamide]
IC50 (PI3K-α): 124 nM | IC50 (PI3K-γ): 523 nM | IC50 (mTOR): 70 nM

Compound: CC(C)c1ccc(-c2nc(Nc3ccc(C(N)=O)cc3)c3cnn(C)c3n2)cc1 [Example 61, 4-{[6-(4-isopropylphenyl)-1-methyl-1H-pyrazolo[3,4-d]pyrimidin-4-yl]amino}benzamide]
IC50 (PI3K-α): 2460 nM | IC50 (PI3K-γ): > 10000 nM | IC50 (mTOR): > 20000 nM

Compound: COc1ccc(-c2nc(Oc3ccc4[nH]ccc4c3)c3cnn(C)c3n2)cc1OC [Example 39, 6-(3,4-dimethoxyphenyl)-4-(1H-indol-5-yloxy)-1-methyl-1H-pyrazolo[3,4-d]pyrimidine]
IC50 (PI3K-α): 160 nM | IC50 (PI3K-γ): 118 nM | IC50 (mTOR): 2800 nM

Compound: CC(=O)Nc1ccc(N(C)c2nc(-c3ccccc3)nc3c2cnn3C)cc1 [Example 35, N-{4-[methyl(1-methyl-6-phenyl-1H-pyrazolo[3,4-d]pyrimidin-4-yl)amino]phenyl}acetamide]
IC50 (PI3K-α): 1500 nM | IC50 (PI3K-γ): 7470 nM | IC50 (mTOR): 4700 nM

Compound: CNC(=O)c1ccc(Nc2nc(Nc3ccc(NC(=O)Nc4cccnc4)cc3)nc3c2cnn3C)cc1 [Example 90, N-Methyl-4-{[1-methyl-6-({4-[(pyridin-3-ylcarbamoyl)amino]phenyl}amino)-1H-pyrazolo[3,4-d]pyrimidin-4-yl]amino}benzamide]
IC50 (PI3K-α): 2.5 nM | IC50 (PI3K-γ): 75 nM | IC50 (mTOR): 12 nM

Compound: COc1ccc(Oc2nc(-c3ccc(OC)c(OC)c3)nc3c2cnn3C)cc1OC [Example 46, 4-(3,4-dimethoxyphenoxy)-6-(3,4-dimethoxyphenyl)-1-methyl-1H-pyrazolo[3,4-d]pyrimidine]
IC50 (PI3K-α): 230 nM | IC50 (PI3K-β): 428 nM | IC50 (PI3K-γ): 203 nM | IC50 (PI3K-δ): 94 nM | IC50 (mTOR): > 20000 nM

Compound: CN(C)CCNC(=O)Nc1ccc(Nc2nc(Nc3ccc(C(N)=O)cc3)c3cnn(C)c3n2)cc1 [Example 86, 4-[(6-{[4-({[2-(Dimethylamino)ethyl]carbamoyl}amino)phenyl]amino}-1-methyl-1H-pyrazolo[3,4-d]pyrimidin-4-yl)amino]benzamide]
IC50 (PI3K-α): 10 nM | IC50 (PI3K-γ): 143 nM | IC50 (mTOR): 2200 nM

Compound: Cc1noc(C)c1-c1nc(Oc2ccc3[nH]ccc3c2)c2cnn(C)c2n1 [Example 72, 6-(3,5-dimethylisoxazol-4-yl)-4-(1H-indol-5-yloxy)-1-methyl-1H-pyrazolo[3,4-d]pyrimidine]
IC50 (PI3K-α): 580 nM | IC50 (PI3K-γ): 1350 nM | IC50 (mTOR): > 20000 nM

Compound: CC(C)N1CCN(C(=O)c2ccc(NC(=O)Nc3ccc(Nc4nc(Nc5ccc(C(N)=O)cc5)c5cnn(C)c5n4)cc3)cc2)CC1 [Example 87, 4-({1-Methyl-6-[(4-{[(4-{[4-(propan-2-yl)piperazin-1-yl]carbonyl}phenyl)carbamoyl]amino}phenyl)amino]-1H-pyrazolo[3,4-d]pyrimidin-4-yl}amino)benzamide]
IC50 (PI3K-α): 0.4 nM | IC50 (PI3K-γ): 5 nM | IC50 (mTOR): 8 nM

Next, values leading:

IC50 (PI3K-α): 258 nM | IC50 (PI3K-β): 1040 nM | IC50 (PI3K-γ): 514 nM | IC50 (PI3K-δ): 134 nM | IC50 (mTOR): > 20000 nM
Compound: COc1cccc(-c2nc(Oc3ccc(NC(C)=O)cc3)c3cnn(C)c3n2)c1 [Example 49, N-(4-{[6-(3-methoxyphenyl)-1-methyl-1H-pyrazolo[3,4-d]pyrimidin-4-yl]oxy}phenyl)acetamide]

IC50 (PI3K-α): 558 nM | IC50 (PI3K-γ): 570 nM | IC50 (mTOR): 330 nM
Compound: Cn1ncc2c(Oc3ccc4[nH]ccc4c3)nc(-c3ccccc3)nc21 [Example 76, 4-(1H-indol-5-yloxy)-1-methyl-6-phenyl-1H-pyrazolo[3,4-d]pyrimidine]

IC50 (PI3K-α): 6700 nM | IC50 (PI3K-γ): > 10000 nM | IC50 (mTOR): 16000 nM
Compound: CN(c1ccc(C(N)=O)cc1)c1nc(-c2ccccc2)nc2c1cnn2C [Example 34, 4-[methyl(1-methyl-6-phenyl-1H-pyrazolo[3,4-d]pyrimidin-4-yl)amino]benzamide]

IC50 (PI3K-α): 3220 nM | IC50 (PI3K-γ): > 10000 nM | IC50 (mTOR): 12000 nM
Compound: COc1ccc2cc(-c3nc(Oc4ccc5[nH]ccc5c4)c4cnn(C)c4n3)ccc2c1 [Example 57, 4-(1H-indol-5-yloxy)-6-(6-methoxy-2-naphthyl)-1-methyl-1H-pyrazolo[3,4-d]pyrimidine]

IC50 (PI3K-α): 266 nM | IC50 (PI3K-γ): 398 nM | IC50 (mTOR): 4900 nM
Compound: CC(=O)Nc1ccc(Oc2nc(-c3ccc(O)cc3)nc3c2cnn3C)cc1 [Example 54, N-(4-{[6-(4-hydroxyphenyl)-1-methyl-1H-pyrazolo[3,4-d]pyrimidin-4-yl]oxy}phenyl)acetamide]

IC50 (PI3K-α): 653 nM | IC50 (PI3K-γ): 1290 nM | IC50 (mTOR): > 20000 nM
Compound: COc1cccc(-c2nc(Oc3ccc(OC)c(OC)c3)c3cnn(C)c3n2)c1 [Example 45, 4-(3,4-dimethoxyphenoxy)-6-(3-methoxyphenyl)-1-methyl-1H-pyrazolo[3,4-d]pyrimidine]

IC50 (PI3K-α): 1020 nM | IC50 (PI3K-γ): 1720 nM | IC50 (mTOR): 9200 nM
Compound: Cn1ncc2c(Oc3ccc(C(N)=O)cc3)nc(-c3ccccc3)nc21 [Example 75, 4-[(1-methyl-6-phenyl-1H-pyrazolo[3,4-d]pyrimidin-4-yl)oxy]benzamide]

IC50 (PI3K-α): 0.2 nM | IC50 (PI3K-γ): 5 nM | IC50 (mTOR): 7 nM
Compound: CN(C)C1CCN(C(=O)c2ccc(NC(=O)Nc3ccc(Nc4nc(Nc5ccc(C(N)=O)cc5)c5cnn(C)c5n4)cc3)cc2)CC1 [Example 82, 4-({6-[(4-{[(4-{[4-(Dimethylamino)piperidin-1-yl]carbonyl}phenyl)carbamoyl]amino}phenyl)amino]-1-methyl-1H-pyrazolo[3,4-d]pyrimidin-4-yl}amino)benzamide]

IC50 (PI3K-α): 660 nM | IC50 (PI3K-γ): 1260 nM | IC50 (mTOR): 16000 nM
Compound: Cn1ncc2c(Oc3ccc4[nH]ccc4c3)nc(-c3cccc([N+](=O)[O-])c3)nc21 [Example 67, 4-(1H-indol-5-yloxy)-1-methyl-6-(3-nitrophenyl)-1H-pyrazolo[3,4-d]pyrimidine]

IC50 (PI3K-α): 1.6 nM | IC50 (PI3K-γ): 11 nM | IC50 (mTOR): 20 nM
Compound: Cn1ncc2c(Nc3ccc4c(c3)CNC4=O)nc(Nc3ccc(NC(=O)Nc4cccnc4)cc3)nc21 [Example 94, 1-[4-({1-Methyl-4-[(1-oxo-2,3-dihydro-1H-isoindol-5-yl)amino]-1H-pyrazolo[3,4-d]pyrimidin-6-yl}amino)phenyl]-3-pyridin-3-ylurea]

IC50 (PI3K-α): 298 nM | IC50 (PI3K-γ): 1140 nM | IC50 (mTOR): 2500 nM
Compound: COc1cccc(-c2nc(Oc3ccc4[nH]ccc4c3)c3cnn(C)c3n2)c1 [Example 38, 4-(1H-indol-5-yloxy)-6-(3-methoxyphenyl)-1-methyl-1H-pyrazolo[3,4-d]pyrimidine]

IC50 (PI3K-α): 529 nM | IC50 (PI3K-γ): 2010 nM | IC50 (mTOR): 3450 nM
Compound: Cn1ncc2c(Nc3ccc(C(N)=O)cc3)nc(Nc3cccc(NC(=O)Nc4cccnc4)c3)nc21 [Example 80, 4-{[1-Methyl-6-({3-[(pyridin-3-ylcarbamoyl)amino]phenyl}amino)-1H-pyrazolo[3,4-d]pyrimidin-4-yl]amino}benzamide]
